Converted amounts (≈) assume the structure as drawn.
Experiments:
Assay type in all cases: functional
[1] = test system: Staphylococcus aureus; experiment: Antistaphylococcal activity against vancomycin-intermediate Staphylococcus aureus 505
[2] = test system: Staphylococcus aureus; experiment: Antistaphylococcal activity against vancomycin-intermediate Staphylococcus aureus 508
[3] = test system: Staphylococcus aureus; experiment: Antistaphylococcal activity against quinolone-resistant Staphylococcus aureus 242
[4] = test system: Staphylococcus aureus; experiment: Antistaphylococcal activity against vancomycin-resistant Staphylococcus aureus
[5] = test system: Staphylococcus aureus; experiment: Antistaphylococcal activity against vancomycin-intermediate Staphylococcus aureus 555
[6] = test system: Staphylococcus aureus; experiment: Antistaphylococcal activity against quinolone-resistant Staphylococcus aureus 508
[7] = test system: Staphylococcus aureus; experiment: Antistaphylococcal activity against methicillin-sensitive Staphylococcus aureus
[8] = test system: Staphylococcus aureus; experiment: Antistaphylococcal activity against vancomycin-resistant Staphylococcus aureus 510
[9] = test system: Staphylococcus aureus; experiment: Antistaphylococcal activity against quinolone-resistant Staphylococcus aureus 241
[10] = test system: Staphylococcus aureus; experiment: Antistaphylococcal activity against vancomycin-intermediate Staphylococcus aureus 506
[11] = test system: Staphylococcus aureus; experiment: Antistaphylococcal activity against quinolone-resistant Staphylococcus aureus 261
[12] = test system: Staphylococcus aureus; experiment: Antistaphylococcal activity against quinolone and methicillin-resistant Staphylococcus aureus
[13] = test system: Staphylococcus aureus; experiment: Antistaphylococcal activity against vancomycin-intermediate Staphylococcus aureus
[14] = test system: Staphylococcus aureus; experiment: Antistaphylococcal activity against quinolone-susceptible methicillin-resistant Staphylococcus aureus
[15] = test system: Staphylococcus aureus; experiment: Antistaphylococcal activity against vancomycin-resistant Staphylococcus aureus 509
[16] = test system: Staphylococcus aureus; experiment: Antistaphylococcal activity against vancomycin-intermediate Staphylococcus aureus 507
[17] = test system: Staphylococcus aureus; experiment: Antistaphylococcal activity against vancomycin-resistant Staphylococcus aureus 512
[18] = test system: Staphylococcus aureus; experiment: Antistaphylococcal activity against vancomycin-intermediate Staphylococcus aureus 504

Row | SMILES | MIC [1] [µg/mL] | MIC [2] [µg/mL] | MIC [3] [µg/mL] | MIC [4] [µg/mL] | MIC [5] [µg/mL] | MIC [6] [µg/mL] | MIC [7] [µg/mL] | MIC [8] [µg/mL] | MIC [9] [µg/mL] | MIC [10] [µg/mL] | MIC [11] [µg/mL] | MIC [12] [µg/mL] | MIC [13] [µg/mL] | MIC [14] [µg/mL] | MIC [15] [µg/mL] | MIC [16] [µg/mL] | MIC [17] [µg/mL] | MIC [18] [µg/mL]
1 | COc1c(N2CC[C@@H](C3(N)CC3)C2)ccc2c(=O)c(C(=O)O)cn([C@@H]3C[C@@H]3F)c12 | 0.004 (≈ 0.00996 µM) | 0.004 (≈ 0.00996 µM) | 0.004 (≈ 0.00996 µM) | 0.125 (≈ 0.311 µM) | 0.06 (≈ 0.149 µM) | 0.004 (≈ 0.00996 µM) | 0.004 (≈ 0.00996 µM) | 0.06 (≈ 0.149 µM) | 0.004 (≈ 0.00996 µM) | 0.06 (≈ 0.149 µM) | 0.004 (≈ 0.00996 µM) | 0.06 (≈ 0.149 µM) | 0.016 (≈ 0.0399 µM) | 0.008 (≈ 0.0199 µM) | 0.06 (≈ 0.149 µM) | 0.06 (≈ 0.149 µM) | 0.06 (≈ 0.149 µM) | 0.06 (≈ 0.149 µM)
2 | C[C@H]1COc2c(N3CCN(C)CC3)c(F)cc3c(=O)c(C(=O)O)cn1c23.C[C@H]1COc2c(N3CCN(C)CC3)c(F)cc3c(=O)c(C(=O)O)cn1c23.O [LEVOFLOXACIN] | – | – | – | – | – | – | – | – | – | – | – | ≥ 4 | – | – | – | – | – | –
3 | CN[C@H](CC(C)C)C(=O)N[C@H]1C(=O)N[C@@H](CC(N)=O)C(=O)N[C@H]2C(=O)N[C@H]3C(=O)N[C@H](C(=O)N[C@H](C(=O)O)c4cc(O)cc(O)c4-c4cc3ccc4O)[C@H](O)c3ccc(c(Cl)c3)Oc3cc2cc(c3O[C@@H]2O[C@H](CO)[C@@H](O)[C@H](O)[C@H]2O[C@H]2C[C@](C)(N)[C@H](O)[C@H](C)O2)Oc2ccc(cc2Cl)[C@H]1O [VANCOMYCIN] | – | – | – | 32 (≈ 22.1 µM) | – | – | – | 0.05 (≈ 0.0345 µM) | – | – | – | – | – | – | – | – | – | –

Source: ChEMBL document CHEMBL1147106, “Antistaphylococcal activity of DX-619 alone and in combination with vancomycin, teicoplanin, and linezolid assessed by time-kill synergy testing” (2007)
